Measurements taken from PubChem BioAssay (NCI).
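Results reflect a 48-hour exposure of cells in 96-well plates to compound at five concentrations. TGI marks complete inhibition of growth.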

Assays:
Experiment in all cases: NCI tumour cell line growth inhibition, 48 h
[1] = test system: HL-60(TB) leukemia
[2] = test system: TK-10 renal
[3] = test system: HCC-2998 colon
[4] = test system: M19-MEL melanoma
[5] = test system: ACHN renal
[6] = test system: EKVX NSCLC
[7] = test system: HOP-92 NSCLC
[8] = test system: HCT-116 colon
[9] = test system: SK-MEL-28 melanoma
[10] = test system: UACC-62 melanoma
[11] = test system: COLO 205 colon
[12] = test system: LOX IMVI melanoma
[13] = test system: HOP-62 NSCLC
[14] = test system: MOLT-4 leukemia
[15] = test system: UACC-257 melanoma
[16] = test system: SNB-75 CNS
[17] = test system: MALME-3M melanoma
[18] = test system: DMS 273 small cell lung
[19] = test system: NCI-H23 lung
[20] = test system: CCRF-CEM leukemia

For `COc1ccc(Nc2cnc3cc(N)ccc3n2)cc1OC`, the TGI [1] was 62.1 µM, the TGI [2] was > 100 µM and the TGI [3] was > 100 µM. For the same compound, the TGI [4] was > 100 µM, the TGI [5] was > 100 µM and the TGI [6] was > 100 µM. For the same compound, the TGI [7] was 42.5 µM, the TGI [8] was > 100 µM and the TGI [9] was > 100 µM. For the same compound, the TGI [10] was > 100 µM, the TGI [11] was > 100 µM and the TGI [12] was > 100 µM. For the same compound, the TGI [13] was > 100 µM, the TGI [14] was > 100 µM and the TGI [15] was > 100 µM. The TGI [16] was > 100 µM, the TGI [17] was > 100 µM and the TGI [18] was > 100 µM. The TGI [19] was > 100 µM and the TGI [20] was > 100 µM.
